What was measured:
[1] = tested on: osteoblasts derived from the parietal bone of rat fetus; assay: Enhancing activity for the induction of alkaline phosphatase production in osteoblasts; assay type: cell-based; conditions: test compound 2.5 μg/ml; compared with activity without the test compound; rat fetal parietal bone osteoblasts
Procedure: The compounds of the present invention were determined for an enhancing activity for the induction of alkaline phosphatase production in osteoblasts derived from the parietal bone of rat fetus. Enhancing activities for the induction of alkaline phosphatase production at a concentration of the test compound of 2.5 μg/ml were 195% for Example 1, 155% for Example 3, 187% for Example 7 and 134% for Example 9, respectively, when compared with those activities without the test compounds.

[2] = tested on: osteoblasts derived from the parietal bone of rat fetus; assay: Enhancing activity for the nodule induction in osteoblasts; assay type: cell-based; conditions: rat fetal parietal bone osteoblasts
Procedure: The compounds of the invention were determined for an enhancing activity for the nodule induction in osteoblasts derived from the parietal bone of rat fetus. Results were 342% at 1.0 μg/ml for Example 1, 501% at 2.5 μg/ml for Example 3, 576% at 2.5 μg/ml for Example 7 and 550% at 2.5 μg/ml for Example 9, respectively.

melting point [°C] | Structure (SMILES) | Enhancing activity for the induction of alkaline phosphatase production [1] [%] | Enhancing activity for the nodule induction ([2]; at 2.5 μg/ml) [%] | Enhancing activity for the nodule induction ([2]; at 1.0 μg/ml) [%]
– | CSc1sc(C(N)=O)c(C)c1-c1oncc1C(C)C [Example 9] | 134 | 550 | –
– | CSc1sc(C(N)=O)c(C)c1-c1oncc1C [Example 1, 3,4′-Dimethyl-4-(isoxazol-5-yl)-5-(methylthio)thiophene-2-carboxamide] | 195 | – | 342
– | CCc1cnoc1-c1c(SC)sc(C(N)=O)c1C [Example 7, 4-(4-Etkylisoxazol-5-yl)-3-methyl-5-(methylthio)-thiophene-2-carboxamide] | 187 | 576 | –
93.5 to 94.5 | CCc1c(C(N)=O)sc(SC)c1-c1oncc1C [Example 3, 3-Ethyl-4-(4-methylisoxazol-5-yl)-5-(methylthio)thiophene-2-carboxamide] | 155 | 501 | –

From US6355663B1, “Substituted isoxazolylthiophene compounds” (Taisho Pharmaceutical Co., Ltd., priority 1998, dated 2002)
